The source made the active and inactive calls.
Tests used:
[1] = target: T1, Long-chain-fatty-acid--AMP ligase FadD28 (Mycobacterium tuberculosis, UniProt P9WQ59); experiment: Fluorescence polarization aasay to screen for inhibitors that compete for the binding of FadD28 to a bisubstrate Measured in Biochemical System Using Plate Reader - 2147-01_Inhibitor_Dose_CherryPick_Activity.; assay type: functional, Mycobacterium tuberculosis H37Rv
T1 sequence (P9WQ59 whole entry): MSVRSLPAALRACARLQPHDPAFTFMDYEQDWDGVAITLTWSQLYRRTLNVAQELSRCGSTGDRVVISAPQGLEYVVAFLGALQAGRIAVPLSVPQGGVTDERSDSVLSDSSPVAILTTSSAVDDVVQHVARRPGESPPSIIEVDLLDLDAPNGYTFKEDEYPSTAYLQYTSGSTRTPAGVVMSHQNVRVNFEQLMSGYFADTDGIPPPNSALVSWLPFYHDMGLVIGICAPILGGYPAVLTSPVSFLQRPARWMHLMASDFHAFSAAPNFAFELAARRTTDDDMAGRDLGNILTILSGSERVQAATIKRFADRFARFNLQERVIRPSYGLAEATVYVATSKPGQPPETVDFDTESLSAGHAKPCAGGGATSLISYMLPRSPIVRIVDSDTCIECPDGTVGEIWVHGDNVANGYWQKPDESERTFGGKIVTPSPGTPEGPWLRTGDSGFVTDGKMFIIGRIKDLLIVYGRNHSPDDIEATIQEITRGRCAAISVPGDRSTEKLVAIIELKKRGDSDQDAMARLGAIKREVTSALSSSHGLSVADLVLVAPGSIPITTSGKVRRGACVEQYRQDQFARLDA

[2] = target: Beta-galactosidase (Escherichia coli, UniProt Q8VNN2); experiment: PubChem AID 485352; assay type: functional
Sequence of Beta-galactosidase (Q8VNN2 whole entry): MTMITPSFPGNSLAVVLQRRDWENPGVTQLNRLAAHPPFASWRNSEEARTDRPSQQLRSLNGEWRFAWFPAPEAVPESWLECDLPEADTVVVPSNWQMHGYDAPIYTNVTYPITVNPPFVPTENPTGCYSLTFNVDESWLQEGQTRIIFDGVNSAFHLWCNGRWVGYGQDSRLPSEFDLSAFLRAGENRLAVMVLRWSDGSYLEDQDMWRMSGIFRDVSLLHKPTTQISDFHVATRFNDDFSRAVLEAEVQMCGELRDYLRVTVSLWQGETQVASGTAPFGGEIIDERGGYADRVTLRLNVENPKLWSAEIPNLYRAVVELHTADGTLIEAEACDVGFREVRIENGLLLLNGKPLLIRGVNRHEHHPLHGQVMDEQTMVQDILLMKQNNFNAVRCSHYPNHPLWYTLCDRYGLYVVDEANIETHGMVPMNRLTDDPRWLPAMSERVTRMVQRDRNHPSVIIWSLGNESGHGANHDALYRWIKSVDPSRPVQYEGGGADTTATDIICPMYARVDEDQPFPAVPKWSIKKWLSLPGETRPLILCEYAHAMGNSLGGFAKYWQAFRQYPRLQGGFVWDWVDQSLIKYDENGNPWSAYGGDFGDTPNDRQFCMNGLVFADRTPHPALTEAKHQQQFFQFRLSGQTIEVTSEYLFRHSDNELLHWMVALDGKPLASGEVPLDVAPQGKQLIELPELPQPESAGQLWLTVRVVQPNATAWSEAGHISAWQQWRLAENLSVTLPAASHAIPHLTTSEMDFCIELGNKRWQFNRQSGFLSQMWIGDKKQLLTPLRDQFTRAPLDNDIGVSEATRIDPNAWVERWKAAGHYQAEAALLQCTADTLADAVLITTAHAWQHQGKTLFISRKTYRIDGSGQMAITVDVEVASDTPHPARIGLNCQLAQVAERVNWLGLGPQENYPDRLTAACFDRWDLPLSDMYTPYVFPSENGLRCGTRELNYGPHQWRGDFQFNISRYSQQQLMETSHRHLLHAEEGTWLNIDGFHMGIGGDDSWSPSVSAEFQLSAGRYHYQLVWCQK

[3] = target: T2, Type-1 angiotensin II receptor (Homo sapiens, UniProt P30556); experiment: antagonism of angiotensin II type 1 receptor – cell-based, uHTS hits, selectivity assay for APJ receptor antagonist project, dose response (AID 463214); assay type: functional;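 note: antagonist potency against angiotensin II stimulated AT1 response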
T2 sequence (P30556 whole entry): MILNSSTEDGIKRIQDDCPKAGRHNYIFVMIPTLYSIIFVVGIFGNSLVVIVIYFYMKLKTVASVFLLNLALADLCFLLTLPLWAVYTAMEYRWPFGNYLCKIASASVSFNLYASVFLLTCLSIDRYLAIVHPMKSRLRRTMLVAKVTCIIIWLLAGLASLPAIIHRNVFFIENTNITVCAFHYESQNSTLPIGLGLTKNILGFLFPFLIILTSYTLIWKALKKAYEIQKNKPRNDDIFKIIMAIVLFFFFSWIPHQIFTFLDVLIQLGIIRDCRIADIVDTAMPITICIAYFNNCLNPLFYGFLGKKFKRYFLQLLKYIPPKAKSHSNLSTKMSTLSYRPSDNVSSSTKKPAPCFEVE

[4] = target: T3, Adenosylmethionine-8-amino-7-oxononanoate aminotransferase (Mycobacterium tuberculosis, UniProt P9WQ81); experiment: Mycobacterium tuberculosis BioA enzyme inhibitor Measured in Biochemical System Using Plate Reader - 2163-02_Inhibitor_Dose_CherryPick_Activity.; assay type: functional, Mycobacterium tuberculosis UT205
T3 sequence (P9WQ81 whole entry): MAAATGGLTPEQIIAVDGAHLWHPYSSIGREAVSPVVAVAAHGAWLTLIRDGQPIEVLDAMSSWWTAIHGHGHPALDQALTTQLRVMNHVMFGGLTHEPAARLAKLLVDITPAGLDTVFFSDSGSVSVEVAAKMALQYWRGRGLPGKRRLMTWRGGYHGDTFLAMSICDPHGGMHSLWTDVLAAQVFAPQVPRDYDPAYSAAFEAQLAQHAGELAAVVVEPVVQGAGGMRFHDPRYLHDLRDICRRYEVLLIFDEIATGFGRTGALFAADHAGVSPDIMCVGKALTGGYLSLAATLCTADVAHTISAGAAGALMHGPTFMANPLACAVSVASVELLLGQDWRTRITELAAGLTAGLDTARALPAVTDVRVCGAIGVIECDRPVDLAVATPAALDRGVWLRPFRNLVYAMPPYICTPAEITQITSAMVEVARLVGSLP

[5] = target: T4, DNA repair protein RAD52 homolog (Homo sapiens, UniProt P43351); assay type: functional, biochemical
T4 sequence (P43351 whole entry): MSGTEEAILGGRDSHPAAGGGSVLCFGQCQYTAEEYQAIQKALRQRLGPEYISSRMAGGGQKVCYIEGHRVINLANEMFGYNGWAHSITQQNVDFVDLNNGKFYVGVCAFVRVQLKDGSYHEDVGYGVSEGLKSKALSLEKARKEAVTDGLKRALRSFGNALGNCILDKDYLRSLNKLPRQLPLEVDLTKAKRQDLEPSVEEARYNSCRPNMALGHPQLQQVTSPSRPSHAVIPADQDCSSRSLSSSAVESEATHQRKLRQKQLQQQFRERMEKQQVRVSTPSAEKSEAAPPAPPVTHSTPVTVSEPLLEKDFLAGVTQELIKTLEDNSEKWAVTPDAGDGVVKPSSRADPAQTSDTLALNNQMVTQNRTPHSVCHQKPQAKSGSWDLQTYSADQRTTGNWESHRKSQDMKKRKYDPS

Row | SMILES | AC50 [1] | AC50 [4] | further results
1 | O=C(NNC(=S)Nc1ccc(Cl)cc1Cl)c1ccc(N2CCOCC2)c([N+](=O)[O-])c1 | 40.2 µM (active) |  | EC50 [2]: > 40 µM (inactive); IC50 [3]: > 40 µM (not active)
2 | COc1ccc(CCN(C)c2ccc(C(N)=O)cc2[N+](=O)[O-])cc1OC |  | 5.7 µM (active) | 
3 | COc1ccc(NC(=O)c2cnc(C)cn2)cc1-n1cnnn1 |  | 0.733 µM (active) | 
4 | COC(=O)c1ccc(NC(S)=NC2c3ccccc3CC2O)cc1 (stereo not drawn) | 26.6 µM (active) |  | 
5 | Cc1ccc(NC(=O)CSCC(=O)Nc2sccc2C#N)cc1 | 18.9 µM (active) |  | 
6 | COCCN1CCn2c(nc3cc(Nc4nnc(C)c5ccccc45)ccc32)C1 |  |  | AC50 [5]: 11.9 µM (active)

Source: ChEMBL document CHEMBL1201862, “PubChem BioAssay data set” (2004)
